Data published in PMC4554834 (Bioorganic & medicinal chemistry, 2015).

Target: T1, human OX1 receptors (Homo sapiens, UniProt O43613)
T1 sequence (O43613 1-425): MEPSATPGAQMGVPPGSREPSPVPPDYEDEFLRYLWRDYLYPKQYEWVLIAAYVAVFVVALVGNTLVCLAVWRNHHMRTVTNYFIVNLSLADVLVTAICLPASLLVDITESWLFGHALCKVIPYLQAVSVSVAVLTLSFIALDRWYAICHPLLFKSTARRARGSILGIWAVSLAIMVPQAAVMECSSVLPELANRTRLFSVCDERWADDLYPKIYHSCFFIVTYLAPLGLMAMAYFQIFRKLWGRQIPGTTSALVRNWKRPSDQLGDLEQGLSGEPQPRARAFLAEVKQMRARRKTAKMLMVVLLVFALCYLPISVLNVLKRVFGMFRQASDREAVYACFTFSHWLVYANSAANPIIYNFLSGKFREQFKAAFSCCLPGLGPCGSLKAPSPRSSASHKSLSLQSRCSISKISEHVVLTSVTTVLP
Assay: Calcium mobilization Ke
Format: cell-based
Conditions: for OX1 potency (in words): qualitative statement

| SMILES | Kb [µM] | other results |
| --- | --- | --- |
| CCOC(=O)C(C)Nc1ccc2c(c1)CCN(CC(=O)NCc1ccccc1)C2Cc1ccc(OC)c(OC)c1 (centres unmarked) [26b, Ethyl 2-({2-[(benzylcarbamoyl)methyl]-1-[(3,4-dimethoxyphenyl)methyl]-1,2,3,4-tetrahydroisoquinolin-6-yl}amino)propanoate] | > 10 | – |
| COc1ccc(CC2c3ccc(NC(=O)Nc4ccccc4)cc3CCN2CC(=O)NCc2ccccc2)cc1OC (centres unmarked) [28d, N-Benzyl-2-{1-[(3,4-dimethoxyphenyl)methyl]-6-[(phenylcarbamoyl)amino]-1,2,3,4-tetrahydroisoquinolin-2-yl}acetamide] | > 10 | OX1 potency (in words): no significant potency |
| COc1ccc(CC2c3ccc(NCCCC(=O)OC(C)(C)C)cc3CCN2CC(=O)NCc2ccccc2)cc1OC (centres unmarked) [26e, Tert-butyl 4-({2-[(benzylcarbamoyl)methyl]-1-[(3,4-dimethoxyphenyl)methyl]-1,2,3,4-tetrahydroisoquinolin-6-yl}amino)butanoate] | 1.01 ± 0.2 | mode of antagonism at OX1 (15 minute pre-incubation): insurmountable antagonism; mode of antagonism at OX1 (pre-incubation increased to 45 min and 60 min): competitive antagonists; mode of antagonism at OX1 (simultaneous addition of antagonist and Orexin A): competitive antagonists |
| COc1ccc(CC2c3ccc(NC(C)=O)cc3CCN2CC(=O)NCc2ccccc2)cc1OC (centres unmarked) [28a, N-Benzyl-2-{1-[(3,4-dimethoxyphenyl)methyl]-6-acetamido-1,2,3,4-tetrahydroisoquinolin-2-yl}acetamide] | > 10 | – |
| COc1ccc(CC2c3ccc(N(C)C)cc3CCN2CC(=O)NCc2ccccc2)cc1OC (centres unmarked) [25a, N-Benzyl-2-{1-[(3,4-dimethoxyphenyl)methyl]-6-(dimethylamino)-1,2,3,4-tetrahydroisoquinolin-2-yl}acetamide] | 1.37 ± 0.1 | – |
| COc1ccc(CC2c3ccc(NCc4cccnc4)cc3CCN2CC(=O)NCc2ccccc2)cc1OC (centres unmarked) [25n, N-Benzyl-2-{1-[(3,4-dimethoxyphenyl)methyl]-6-[(pyridin-3-ylmethyl)amino]-1,2,3,4-tetrahydroisoquinolin-2-yl}acetamide] | 1.27 ± 0.11 | – |
| CCCOc1ccc2c(c1)CCN(CC(=O)NCc1ccccc1)C2Cc1ccc(OC)c(OC)c1 (centres unmarked) [17a, N-Benzyl-2-{1-[(3,4-dimethoxyphenyl)methyl]-6-propoxy-1,2,3,4-tetrahydroisoquinolin-2-yl}acetamide] | > 10 | – |
| CCOC(=O)CCCCCCNc1ccc2c(c1)CCN(CC(=O)NCc1ccccc1)C2Cc1ccc(OC)c(OC)c1 (centres unmarked) [26g, Ethyl 7-({2-[(benzylcarbamoyl)methyl]-1-[(3,4-dimethoxyphenyl)methyl]-1,2,3,4-tetrahydroisoquinolin-6-yl}amino)heptanoate] | > 10 | – |
| COc1ccc(CC2c3ccc(NCC(=O)N(C)C)cc3CCN2CC(=O)NCc2ccccc2)cc1OC (centres unmarked) [26h, 2-({2-[(Benzylcarbamoyl)methyl]-1-[(3,4-dimethoxyphenyl)methyl]-1,2,3,4-tetrahydroisoquinolin-6-yl}amino)-N,N-dimethylacetamide] | > 10 | OX1 potency (in words): large decline in potency |
| CCCN(C)c1ccc2c(c1)CCN(CC(=O)NCc1ccccc1)C2Cc1ccc(OC)c(OC)c1 (centres unmarked) [25c, N-Benzyl-2-{1-[(3,4-dimethoxyphenyl)methyl]-6-[methyl(propyl)amino]-1,2,3,4-tetrahydroisoquinolin-2-yl}acetamide] | 0.619 ± 0.096 | – |
| CCCCOc1ccc2c(c1)C(Cc1ccc(OC)c(OC)c1)N(CC(=O)NCc1ccccc1)CC2 (centres unmarked) [10e, N-Benzyl-2-{7-butoxy-1-[(3,4-dimethoxyphenyl)methyl]-1,2,3,4-tetrahydroisoquinolin-2-yl}acetamide] | 0.23 ± 0.07 | – |
| COc1ccc(CC2c3ccc(NCCN4CCCCC4)cc3CCN2CC(=O)NCc2ccccc2)cc1OC (centres unmarked) [25o, N-Benzyl-2-{1-[(3,4-dimethoxyphenyl)methyl]-6-{[2-(piperidin-1-yl)ethyl]amino}-1,2,3,4-tetrahydroisoquinolin-2-yl}acetamide] | > 10 | OX1 potency (in words): loss of detectable potency |
| CCCCCCNc1ccc2c(c1)CCN(CC(=O)NCc1ccccc1)C2Cc1ccc(OC)c(OC)c1 (centres unmarked) [25t, N-Benzyl-2-{1-[(3,4-dimethoxyphenyl)methyl]-6-(hexylamino)-1,2,3,4-tetrahydroisoquinolin-2-yl}acetamide] | > 10 | – |
| COC(=O)CCCCNc1ccc2c(c1)CCN(CC(=O)NCc1ccccc1)C2Cc1ccc(OC)c(OC)c1 (centres unmarked) [26f, Methyl 5-({2-[(benzylcarbamoyl)methyl]-1-[(3,4-dimethoxyphenyl)methyl]-1,2,3,4-tetrahydroisoquinolin-6-yl}amino)pentanoate] | 1.6 ± 0.19 | – |
| COc1ccc(CC2c3ccc(N4CCCCC4)cc3CCN2CC(=O)NCc2ccccc2)cc1OC (centres unmarked) [25q, N-Benzyl-2-{1-[(3,4-dimethoxyphenyl)methyl]-6-(piperidin-1-yl)-1,2,3,4-tetrahydroisoquinolin-2-yl}acetamide] | > 10 | OX1 potency (in words): no detectable potency |
| CCOC(=O)CCCCCCOc1ccc2c(c1)CCN(CC(=O)NCc1ccccc1)C2Cc1ccc(OC)c(OC)c1 (centres unmarked) [17f, Ethyl 7-({2-[(benzylcarbamoyl)methyl]-1-[(3,4-dimethoxyphenyl)methyl]-1,2,3,4-tetrahydroisoquinolin-6-yl}oxy)heptanoate] | > 10 | – |

| SMILES | Kb [µM] | other results |
| --- | --- | --- |
| COc1ccc(CC2c3cc(OC(C)C)ccc3CCN2CC(=O)NCc2ccccc2)cc1OC (centres unmarked) [10d, N-Benzyl-2-{1-[(3,4-dimethoxyphenyl)methyl]-7-(propan-2-yloxy)-1,2,3,4-tetrahydroisoquinolin-2-yl}acetamide] | 0.0497 ± 0.011 | – |
| COc1ccc(CC2c3ccc(OS(=O)(=O)c4ccccc4)cc3CCN2CC(=O)NCc2ccccc2)cc1OC (centres unmarked) [18b, 2-[(Benzylcarbamoyl)methyl]-1-[(3,4-dimethoxyphenyl)methyl]-1,2,3,4-tetrahydroisoquinolin-6-yl benzenesulfonate] | > 10 | – |
| COc1ccc(CC2c3ccc(NCC4CC4)cc3CCN2CC(=O)NCc2ccccc2)cc1OC (centres unmarked) [25f, N-Benzyl-2-{6-[(cyclopropylmethyl)amino]-1-[(3,4-dimethoxyphenyl)methyl]-1,2,3,4-tetrahydroisoquinolin-2-yl}acetamide] | > 10 | – |
| CCCCCCNC(=O)Nc1ccc2c(c1)CCN(CC(=O)NCc1ccccc1)C2Cc1ccc(OC)c(OC)c1 (centres unmarked) [28e, N-Benzyl-2-{1-[(3,4-dimethoxyphenyl)methyl]-6-[(hexylcarbamoyl)amino]-1,2,3,4-tetrahydroisoquinolin-2-yl}acetamide] | 5.23 ± 0.68 | OX1 potency (in words): no significant potency |
| COc1ccc(CC2c3ccc(NCCCc4ccccc4)cc3CCN2CC(=O)NCc2ccccc2)cc1OC (centres unmarked) [25k, N-Benzyl-2-{1-[(3,4-dimethoxyphenyl)methyl]-6-[(3-phenylpropyl)amino]-1,2,3,4-tetrahydroisoquinolin-2-yl}acetamide] | 1.18 ± 0.08 | – |
| CCOC(=O)CNc1ccc2c(c1)CCN(CC(=O)NCc1ccccc1)C2Cc1ccc(OC)c(OC)c1 (centres unmarked) [26a, Ethyl 2-({2-[(benzylcarbamoyl)methyl]-1-[(3,4-dimethoxyphenyl)methyl]-1,2,3,4-tetrahydroisoquinolin-6-yl}amino)acetate] | 0.427 ± 0.069 | OX1 potency (in words): some activity |
| COc1ccc(CC2c3ccc(NCCCCOc4ccccc4)cc3CCN2CC(=O)NCc2ccccc2)cc1OC (centres unmarked) [25l, N-Benzyl-2-{1-[(3,4-dimethoxyphenyl)methyl]-6-[(4-phenoxybutyl)amino]-1,2,3,4-tetrahydroisoquinolin-2-yl}acetamide] | 2.08 ± 0.02 | – |
| CCCN(CCC)c1ccc2c(c1)CCN(CC(=O)NCc1ccccc1)C2Cc1ccc(OC)c(OC)c1 (centres unmarked) [25d, N-Benzyl-2-{1-[(3,4-dimethoxyphenyl)methyl]-6-(dipropylamino)-1,2,3,4-tetrahydroisoquinolin-2-yl}acetamide] | 2.35 ± 0.49 | – |
| CCCCCN(C)c1ccc2c(c1)CCN(CC(=O)NCc1ccccc1)C2Cc1ccc(OC)c(OC)c1 (centres unmarked) [25s, N-Benzyl-2-{1-[(3,4-dimethoxyphenyl)methyl]-6-[methyl(pentyl)amino]-1,2,3,4-tetrahydroisoquinolin-2-yl}acetamide] | > 10 | – |
| COc1ccc(CC2c3ccc(OCc4ccccc4)cc3CCN2CC(=O)NCc2ccccc2)cc1OC (centres unmarked) [17d, N-Benzyl-2-[6-(benzyloxy)-1-[(3,4-dimethoxyphenyl)methyl]-1,2,3,4-tetrahydroisoquinolin-2-yl]acetamide] | > 10 | – |
| COc1ccc(CC2c3ccc(NCc4ccncc4)cc3CCN2CC(=O)NCc2ccccc2)cc1OC (centres unmarked) [25m, N-Benzyl-2-{1-[(3,4-dimethoxyphenyl)methyl]-6-[(pyridin-4-ylmethyl)amino]-1,2,3,4-tetrahydroisoquinolin-2-yl}acetamide] | > 10 | – |
| CCOc1ccc2c(c1)C(Cc1ccc(OC)c(OC)c1)N(CC(=O)NCc1ccccc1)CC2 (centres unmarked) [10b, N-Benzyl-2-{1-[(3,4-dimethoxyphenyl)methyl]-7-ethoxy-1,2,3,4-tetrahydroisoquinolin-2-yl}acetamide] | 0.0373 ± 0.0078 | – |
| COc1ccc(CC2c3ccc(NC(C)C)cc3CCN2CC(=O)NCc2ccccc2)cc1OC (centres unmarked) [25e, N-Benzyl-2-{1-[(3,4-dimethoxyphenyl)methyl]-6-[(propan-2-yl)amino]-1,2,3,4-tetrahydroisoquinolin-2-yl}acetamide] | > 10 | – |
| COc1ccc(CC2c3ccc(N(C)CC4CC4)cc3CCN2CC(=O)NCc2ccccc2)cc1OC (centres unmarked) [25g, N-Benzyl-2-{6-[(cyclopropylmethyl)(methyl)amino]-1-[(3,4-dimethoxyphenyl)methyl]-1,2,3,4-tetrahydroisoquinolin-2-yl}acetamide] | 1.4 ± 0.24 | – |
| COc1ccc(CC2c3ccc(N4CCCC4)cc3CCN2CC(=O)NCc2ccccc2)cc1OC (centres unmarked) [25p, N-Benzyl-2-{1-[(3,4-dimethoxyphenyl)methyl]-6-(pyrrolidin-1-yl)-1,2,3,4-tetrahydroisoquinolin-2-yl}acetamide] | 2.48 ± 0.006 | OX1 potency (in words): some potency |
